Experiment [1] concerns the target T1, RNA-binding protein pos-1 (Caenorhabditis elegans, UniProt G5EF15).
T1 sequence (G5EF15 whole entry): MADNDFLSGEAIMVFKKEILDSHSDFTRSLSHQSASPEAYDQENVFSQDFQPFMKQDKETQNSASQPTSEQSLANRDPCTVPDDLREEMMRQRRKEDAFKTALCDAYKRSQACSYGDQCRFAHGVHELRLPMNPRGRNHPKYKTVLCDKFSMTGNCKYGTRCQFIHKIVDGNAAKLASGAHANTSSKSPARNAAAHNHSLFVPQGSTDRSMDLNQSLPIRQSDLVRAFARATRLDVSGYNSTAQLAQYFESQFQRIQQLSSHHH
The experiment in a line: inhibitors of POS-1/mex-3 RNA binding, dose response, biochemical, fluorescence polarization (AID 1964).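 Also: purified POS-1 fused to maltose binding protein made in E. coli; potency of compounds blocking POS-1 binding to fluorescent RNA.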

Experiment [2] addresses T2, Zinc finger protein mex-5 (Caenorhabditis elegans, UniProt Q9XUB2).
T2 sequence (Q9XUB2 whole entry): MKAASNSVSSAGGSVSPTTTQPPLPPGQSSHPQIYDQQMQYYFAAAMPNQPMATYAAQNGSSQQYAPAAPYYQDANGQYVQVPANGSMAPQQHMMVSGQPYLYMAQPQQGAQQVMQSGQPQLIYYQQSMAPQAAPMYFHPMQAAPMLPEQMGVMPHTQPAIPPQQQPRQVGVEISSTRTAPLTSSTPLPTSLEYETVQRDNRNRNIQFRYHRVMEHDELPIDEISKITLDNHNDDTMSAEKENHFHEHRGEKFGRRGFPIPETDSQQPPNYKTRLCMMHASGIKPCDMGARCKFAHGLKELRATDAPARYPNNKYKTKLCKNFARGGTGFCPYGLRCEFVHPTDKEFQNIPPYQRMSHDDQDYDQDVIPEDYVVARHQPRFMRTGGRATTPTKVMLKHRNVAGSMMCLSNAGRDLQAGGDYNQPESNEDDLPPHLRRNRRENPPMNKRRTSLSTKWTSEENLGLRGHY
Description: MEX-5/TCR-2 RNA interaction inhibitors, dose response, biochemical, C. elegans, fluorescence polarization (AID 1960).

Experiment [3] has as its target T3, Microphthalmia-associated transcription factor (Homo sapiens, UniProt O75030).
T3 sequence (O75030 whole entry): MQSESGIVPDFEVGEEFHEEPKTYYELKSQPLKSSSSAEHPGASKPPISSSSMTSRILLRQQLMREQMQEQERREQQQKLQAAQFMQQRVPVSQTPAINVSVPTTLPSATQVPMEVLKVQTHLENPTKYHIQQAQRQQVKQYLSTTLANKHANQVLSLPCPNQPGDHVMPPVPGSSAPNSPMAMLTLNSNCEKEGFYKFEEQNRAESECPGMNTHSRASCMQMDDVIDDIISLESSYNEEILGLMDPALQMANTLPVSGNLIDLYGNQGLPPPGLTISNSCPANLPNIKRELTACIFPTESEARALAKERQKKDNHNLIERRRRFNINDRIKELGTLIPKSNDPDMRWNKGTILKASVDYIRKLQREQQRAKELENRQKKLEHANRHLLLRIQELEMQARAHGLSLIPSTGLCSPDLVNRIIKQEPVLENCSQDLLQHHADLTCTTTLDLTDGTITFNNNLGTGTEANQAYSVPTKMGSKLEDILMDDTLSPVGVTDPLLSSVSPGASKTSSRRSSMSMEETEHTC
The experiment in a line: TRPM1 promoter luciferase signal decrease, dose response, MITF inhibitor project, cell-based, SK-MEL-5, cherry-picked, set 3 (AID 493073).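 Also: SK-MEL-5 melanoma cells with luciferase driven by the MITF target TRPM1 promoter.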 It counts as functional.

Experiment [4] concerns the target Apoptotic protease-activating factor 1 (Homo sapiens, UniProt O14727). The format is functional.
Experiment [5] deals with A-375. The experiment in a line: A375 melanoma cell viability reduction, dose response, counter-screen for MITF modulator project, cherry-pick samples, set 2 (AID 540335). The settings on record: Homo sapiens. The format is functional, cell-based.
Experiment [6] has as its target Beta-2 adrenergic receptor (Homo sapiens, UniProt P07550). The experiment in a line: beta2AR agonists driving receptor internalization, dose response, cell-based, FAP fluorogen, flow cytometry, cherry pick 1 (AID 588763). It counts as functional.
The target in experiment [7] is Large T antigen (Simian virus 40, UniProt P03070). It counts as functional, Betapolyomavirus macacae.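 Also: Confirmatory-stage PubChem screen for compounds that inhibit SV40 T antigen.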
In experiment [8] the target is T4, Kappa-type opioid receptor (Homo sapiens, UniProt P41145). It counts as functional.
In experiment [9] the target is Beta-galactosidase (Escherichia coli, UniProt Q8VNN2). The format is functional.
For experiment [10], the target named is T4, Kappa-type opioid receptor. It counts as functional. This is another data set of the same source.
Experiment [11] has as its system CHO. Description: cytotoxicity in TLR9-MyD88 CHO cells, dose response, cytotoxicity control for TLR9-MyD88 binding inhibitor project, cell-based, luminescence (AID 588339).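 Also: CHO cells stably coexpressing TLR9 and MyD88 fusions from primary screen; compound exposure lasted 48 hours before viability readout.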 The format is functional, hamster. The settings on record: Cricetulus griseus.
Experiment [12] has as its target T5, Beta Lactamase (Pseudomonas aeruginosa, UniProt Q932Y6). The experiment in a line: beta-lactamase reporter inhibitor potency, dose response, artefact control for TLR9-MyD88 binding inhibitor project, BLA reporter cells, FRET fluorescence (AID 588341).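 Also: cell based assay in CHO-K1 cells stably expressing beta-lactamase.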 The format is cell-based.
Experiment [13] deals with INS1. The experiment in a line: beta cell apoptosis inhibitors, cytokine rescue, dose response, luminescence, retest (AID 449756).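 Also: cell death triggered by IL-1 beta plus TNF-alpha plus IFN-gamma mixture; protective hits raise ATP signal compared with cytokine alone wells.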 The settings on record: Rattus norvegicus. It counts as functional, cell-based.
The nature of experiment [14]: Fluorescence-based cell-based high throughput dose response assay for inhibitors of the interaction of nucleotide-binding oligomerization domain containing 2 (NOD2) and the receptor-interacting serine-threonine kinase 2 (RIPK2). The format is functional. The settings on record: Homo sapiens.
For experiment [15], the target named is T5, Beta Lactamase. Description: beta-lactamase reporter inhibitor potency, dose response, artefact control for NOD2-RIPK2 interaction inhibitor project, BLA reporter cells, FRET fluorescence (AID 651552). It counts as functional, cell-based.
Experiment [16] is described as follows: HeLa cell cytotoxicity, dose response, cytotoxicity control for MgcRacGAP inhibitor project (AID 624300). It counts as functional.
Experiment [17] deals with T6, Rac GTPase-activating protein 1 (Homo sapiens, UniProt Q9H0H5).
T6 sequence (Q9H0H5 whole entry): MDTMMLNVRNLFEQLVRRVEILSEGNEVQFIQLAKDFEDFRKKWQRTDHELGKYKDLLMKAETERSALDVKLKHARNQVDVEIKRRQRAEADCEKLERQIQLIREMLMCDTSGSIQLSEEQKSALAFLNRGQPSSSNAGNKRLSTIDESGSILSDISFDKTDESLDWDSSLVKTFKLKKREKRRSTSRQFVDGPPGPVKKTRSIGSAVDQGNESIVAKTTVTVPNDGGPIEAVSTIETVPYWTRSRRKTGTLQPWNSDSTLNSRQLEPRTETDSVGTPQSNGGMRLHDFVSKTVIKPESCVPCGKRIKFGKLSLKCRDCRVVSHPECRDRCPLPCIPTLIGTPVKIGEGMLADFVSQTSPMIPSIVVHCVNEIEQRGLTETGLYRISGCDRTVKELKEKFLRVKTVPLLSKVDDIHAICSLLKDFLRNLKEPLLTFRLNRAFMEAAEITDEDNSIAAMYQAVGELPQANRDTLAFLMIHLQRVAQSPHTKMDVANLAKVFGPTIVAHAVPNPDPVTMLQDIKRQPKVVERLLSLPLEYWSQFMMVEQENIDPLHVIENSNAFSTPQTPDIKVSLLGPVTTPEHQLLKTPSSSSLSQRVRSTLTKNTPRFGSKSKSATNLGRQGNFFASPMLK
The experiment in a line: MgcRacGAP GTPase-activating activity inhibitors, confirmation, biochemical, ADP Hunter fluorescence, primary and confirmatory (AID 624330). The format is functional.

A short description of experiment [18]: ADP-Glo luciferase interference without Dyrk1A, dose response, artefact control for Dyrk1A inhibitor project, biochemical, luminescence, cherry-pick, set 02 (AID 588348).
Experiment [19] deals with HSP90 (Plasmodium falciparum 3D7, UniProt Q8IL32). The format is functional, organism-based.
In experiment [20] the test system is INS1. Description: protection of INS-1E cells from cytokine death, dose response, ATP luminescence, dry powder (AID 488844). The format is functional, cell-based. The settings on record: Rattus norvegicus.
Experiment [21] has as its system INS1. Description: inhibitors of cytokine-induced nitrite release, dose response, cell-based, Griess absorbance, INS-1E, dry powder, set 2 (AID 488868). It counts as functional. The settings on record: Rattus norvegicus.
Experiment [22] has as its system INS1. Description: protection from cytokine-induced mitochondrial depolarization, dose response, cell-based, INS-1E, JC-1 fluorescence ratio, dry powder (AID 488931). It counts as functional. The settings on record: Rattus norvegicus.
In experiment [23] the test system is INS1. The experiment in a line: protection from cytokine-driven beta-cell apoptosis, dose response, JC-1 fluorescence, INS-1E, dry powder, set 2 (AID 488867). The format is functional, cell-based. The settings on record: Rattus norvegicus.
Experiment [24] has as its system HEK293. The experiment in a line: cytotoxicity in HEK293T NF-kB-Luc cells, SAR follow-up, cytotoxicity control for NF-kB activator project, cell-based, resazurin fluorescence (AID 493251). The format is functional. The settings on record: Homo sapiens.
Experiment [25] concerns Jurkat. Description: SAR Analysis of small molecule inhibitors of T-cell specific antigen receptor-induced NF-kB activation in a Jurkat cell line using a luminescence assay - Set 2. [Related pubchem assays (depositor defined):AID435003, AID435012, AID465]. The settings on record: Homo sapiens. It counts as functional, cell-based.
For experiment [26], the system named is HEK293. The experiment in a line: SAR Analysis of small molecule inhibitors of T-cell specific antigen receptor-induced NF-kB activation in a HEK-293T cell line using a luminescence assay - Set 2. [Related pubchem assays (depositor defined):AID435003, AID435012, AID489026]. The settings on record: Homo sapiens. It counts as functional, cell-based.
Experiment [27] in a line: NIH-3T3 fibroblast cytotoxicity, dose response, cytotoxicity control, cell-based, fluorescence, Alamar Blue, secondary assay (AID 2327).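 Also: NIH-3T3 mouse fibroblasts cultured with fluconazole at 8 µg/mL.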 The format is functional.
Experiment [28] is described as follows: C. albicans growth with fluconazole, confirmation, fluorescence, retest (AID 2467). The format is functional, cell-based.
Experiment [29] in a line: inhibitors of intracellular T. cruzi replication, confirmation, NIH3T3 host cells, beta-gal luminescence (AID 2044).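 Also: intracellular parasites grown in NIH/3T3 mouse fibroblasts as host cells; luminescent beta-galactosidase reporter signal from transgenic T. cruzi replicating inside host cells; inhibitors lower the luminescence signal.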 It counts as functional, cell-based.
The target in experiment [30] is Serine/threonine-protein phosphatase (Candida dubliniensis (strain CD36 / CBS 7987 / NCPF 3949 / NRRLY-17841) (Yeast), UniProt B9W6M3). The experiment in a line: calcineurin pathway inhibitors in yeast reporter, dose response, S. cerevisiae, CDRE-lacZ, luminescence, secondary (AID 2388).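 Also: yeast reporter cells carrying a calcineurin-responsive lacZ construct stimulated with calcium chloride; luminescent beta-galactosidase reporter signal in whole cells rather than isolated phosphatase activity; potency for inhibition where a drop in reporter signal means calcineurin blockade.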 The format is functional, cell-based.
A short description of experiment [31]: cytotoxicity toward NIH3T3 fibroblasts, dose response, counter-screen, cell-based, ATP luminescence, mouse fibroblasts (AID 2010).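 Also: cells exposed to compound for about 90 hours before reading.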 It counts as functional.
Experiment [32] addresses ATP-dependent molecular chaperone HSP82 (Candida albicans (strain WO-1) (Yeast), UniProt C4YTQ8). The experiment in a line: loss of DOC-induced GRE-beta-galactosidase reporter signal, dose response, Hsp90 inhibitor project, S. cerevisiae, luminescence (AID 2400).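 Also: beta-galactosidase luminescence from glucocorticoid response element reporter as proxy for Hsp90 function; inhibitor potency where signal loss means Hsp90 inhibition.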 The format is functional, cell-based.

SMILES strings stand for the structures. Active and inactive are the calls of the source.

T5 sequence (Q932Y6 whole entry): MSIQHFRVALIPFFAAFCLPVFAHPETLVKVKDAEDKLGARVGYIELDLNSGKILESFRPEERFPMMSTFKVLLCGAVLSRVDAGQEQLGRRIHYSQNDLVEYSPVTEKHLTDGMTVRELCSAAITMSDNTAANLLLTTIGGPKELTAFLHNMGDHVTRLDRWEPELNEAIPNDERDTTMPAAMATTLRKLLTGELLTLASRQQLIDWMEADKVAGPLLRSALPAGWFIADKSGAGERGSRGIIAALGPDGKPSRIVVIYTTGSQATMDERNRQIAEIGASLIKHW
T4 sequence (P41145 whole entry): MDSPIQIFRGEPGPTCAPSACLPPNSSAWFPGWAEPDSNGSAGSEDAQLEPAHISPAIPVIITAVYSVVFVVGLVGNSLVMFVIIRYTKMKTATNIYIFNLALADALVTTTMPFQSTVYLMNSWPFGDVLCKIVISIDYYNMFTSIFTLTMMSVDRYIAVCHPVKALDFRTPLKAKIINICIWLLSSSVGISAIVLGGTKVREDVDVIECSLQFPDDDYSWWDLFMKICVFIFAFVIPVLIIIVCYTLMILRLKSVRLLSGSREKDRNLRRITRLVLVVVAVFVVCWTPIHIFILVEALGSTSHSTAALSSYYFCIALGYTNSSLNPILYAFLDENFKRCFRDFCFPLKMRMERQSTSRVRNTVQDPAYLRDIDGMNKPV
Chain of Beta-2 adrenergic receptor (P07550 whole entry): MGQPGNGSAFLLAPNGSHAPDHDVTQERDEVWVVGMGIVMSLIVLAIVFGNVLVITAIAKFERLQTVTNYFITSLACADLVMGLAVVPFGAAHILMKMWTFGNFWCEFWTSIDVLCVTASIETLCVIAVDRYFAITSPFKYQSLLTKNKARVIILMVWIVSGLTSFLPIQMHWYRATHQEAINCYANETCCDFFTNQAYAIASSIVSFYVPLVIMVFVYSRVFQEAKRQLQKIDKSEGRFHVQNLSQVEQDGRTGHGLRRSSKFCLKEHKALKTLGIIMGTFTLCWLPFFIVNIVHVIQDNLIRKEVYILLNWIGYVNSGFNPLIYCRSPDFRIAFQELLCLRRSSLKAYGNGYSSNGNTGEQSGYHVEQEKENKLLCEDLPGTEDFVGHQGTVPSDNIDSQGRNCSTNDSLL
Chain of Large T antigen (P03070 whole entry): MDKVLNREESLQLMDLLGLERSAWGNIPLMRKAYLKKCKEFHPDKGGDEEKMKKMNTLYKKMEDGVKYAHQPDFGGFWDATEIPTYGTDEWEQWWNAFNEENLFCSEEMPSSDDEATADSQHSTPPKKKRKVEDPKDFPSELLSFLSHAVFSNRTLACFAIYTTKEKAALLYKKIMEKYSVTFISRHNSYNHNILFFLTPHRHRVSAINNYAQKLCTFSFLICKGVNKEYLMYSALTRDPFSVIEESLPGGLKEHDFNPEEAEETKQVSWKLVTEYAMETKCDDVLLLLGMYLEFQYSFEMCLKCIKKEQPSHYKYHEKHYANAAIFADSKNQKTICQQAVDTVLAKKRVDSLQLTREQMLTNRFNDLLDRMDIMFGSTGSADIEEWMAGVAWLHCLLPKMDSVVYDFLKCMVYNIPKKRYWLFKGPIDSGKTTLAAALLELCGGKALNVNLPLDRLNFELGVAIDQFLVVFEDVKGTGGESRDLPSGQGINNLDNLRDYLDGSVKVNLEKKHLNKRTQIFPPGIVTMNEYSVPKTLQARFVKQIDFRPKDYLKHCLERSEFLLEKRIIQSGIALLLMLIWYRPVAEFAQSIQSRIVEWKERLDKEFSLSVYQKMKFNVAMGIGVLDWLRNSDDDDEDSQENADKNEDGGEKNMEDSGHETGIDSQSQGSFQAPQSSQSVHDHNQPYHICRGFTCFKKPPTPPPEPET
Chain of Serine/threonine-protein phosphatase (B9W6M3 whole entry): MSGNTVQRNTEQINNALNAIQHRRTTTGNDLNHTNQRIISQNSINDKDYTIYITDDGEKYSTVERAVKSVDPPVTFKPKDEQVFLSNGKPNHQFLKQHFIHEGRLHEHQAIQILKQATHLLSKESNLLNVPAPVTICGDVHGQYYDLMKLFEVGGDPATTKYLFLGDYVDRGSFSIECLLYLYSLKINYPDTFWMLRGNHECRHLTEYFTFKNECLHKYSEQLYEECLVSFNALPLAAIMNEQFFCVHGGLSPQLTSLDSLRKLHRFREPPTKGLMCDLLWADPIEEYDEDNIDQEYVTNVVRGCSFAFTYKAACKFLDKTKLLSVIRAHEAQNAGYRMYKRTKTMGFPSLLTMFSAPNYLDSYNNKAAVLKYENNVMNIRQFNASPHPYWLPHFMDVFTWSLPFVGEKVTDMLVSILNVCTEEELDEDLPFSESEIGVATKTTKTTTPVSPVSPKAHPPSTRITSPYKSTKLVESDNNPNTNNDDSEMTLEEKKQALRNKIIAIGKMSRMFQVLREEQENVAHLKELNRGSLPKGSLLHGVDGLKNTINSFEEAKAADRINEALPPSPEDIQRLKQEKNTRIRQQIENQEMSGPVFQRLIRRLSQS
Chain of Beta-galactosidase (Q8VNN2 whole entry): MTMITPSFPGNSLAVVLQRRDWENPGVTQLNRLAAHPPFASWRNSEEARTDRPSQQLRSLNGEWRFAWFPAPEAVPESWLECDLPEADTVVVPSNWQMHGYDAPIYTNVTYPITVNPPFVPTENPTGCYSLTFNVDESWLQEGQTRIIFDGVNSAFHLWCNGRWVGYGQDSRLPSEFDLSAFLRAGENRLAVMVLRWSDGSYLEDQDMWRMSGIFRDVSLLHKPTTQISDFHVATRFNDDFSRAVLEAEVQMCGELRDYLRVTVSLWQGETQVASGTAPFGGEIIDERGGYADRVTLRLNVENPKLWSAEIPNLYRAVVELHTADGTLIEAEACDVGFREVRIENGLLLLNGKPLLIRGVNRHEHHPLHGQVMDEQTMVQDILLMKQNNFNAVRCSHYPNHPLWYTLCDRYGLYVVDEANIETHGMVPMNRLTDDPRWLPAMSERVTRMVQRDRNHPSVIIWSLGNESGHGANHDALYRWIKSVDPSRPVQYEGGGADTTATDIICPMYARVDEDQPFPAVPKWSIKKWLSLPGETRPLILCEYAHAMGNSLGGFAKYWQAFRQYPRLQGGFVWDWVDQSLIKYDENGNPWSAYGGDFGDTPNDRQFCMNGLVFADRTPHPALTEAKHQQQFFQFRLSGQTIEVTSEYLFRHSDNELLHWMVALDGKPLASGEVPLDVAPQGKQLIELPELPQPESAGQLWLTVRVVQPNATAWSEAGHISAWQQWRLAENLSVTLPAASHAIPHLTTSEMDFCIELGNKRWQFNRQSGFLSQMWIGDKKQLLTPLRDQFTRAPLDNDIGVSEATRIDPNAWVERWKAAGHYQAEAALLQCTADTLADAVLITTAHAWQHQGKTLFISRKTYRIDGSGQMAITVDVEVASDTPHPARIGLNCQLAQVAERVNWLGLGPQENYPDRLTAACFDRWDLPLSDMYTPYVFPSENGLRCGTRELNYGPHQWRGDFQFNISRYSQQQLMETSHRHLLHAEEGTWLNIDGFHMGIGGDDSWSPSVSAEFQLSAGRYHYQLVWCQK
Chain of Apoptotic protease-activating factor 1 (O14727 whole entry): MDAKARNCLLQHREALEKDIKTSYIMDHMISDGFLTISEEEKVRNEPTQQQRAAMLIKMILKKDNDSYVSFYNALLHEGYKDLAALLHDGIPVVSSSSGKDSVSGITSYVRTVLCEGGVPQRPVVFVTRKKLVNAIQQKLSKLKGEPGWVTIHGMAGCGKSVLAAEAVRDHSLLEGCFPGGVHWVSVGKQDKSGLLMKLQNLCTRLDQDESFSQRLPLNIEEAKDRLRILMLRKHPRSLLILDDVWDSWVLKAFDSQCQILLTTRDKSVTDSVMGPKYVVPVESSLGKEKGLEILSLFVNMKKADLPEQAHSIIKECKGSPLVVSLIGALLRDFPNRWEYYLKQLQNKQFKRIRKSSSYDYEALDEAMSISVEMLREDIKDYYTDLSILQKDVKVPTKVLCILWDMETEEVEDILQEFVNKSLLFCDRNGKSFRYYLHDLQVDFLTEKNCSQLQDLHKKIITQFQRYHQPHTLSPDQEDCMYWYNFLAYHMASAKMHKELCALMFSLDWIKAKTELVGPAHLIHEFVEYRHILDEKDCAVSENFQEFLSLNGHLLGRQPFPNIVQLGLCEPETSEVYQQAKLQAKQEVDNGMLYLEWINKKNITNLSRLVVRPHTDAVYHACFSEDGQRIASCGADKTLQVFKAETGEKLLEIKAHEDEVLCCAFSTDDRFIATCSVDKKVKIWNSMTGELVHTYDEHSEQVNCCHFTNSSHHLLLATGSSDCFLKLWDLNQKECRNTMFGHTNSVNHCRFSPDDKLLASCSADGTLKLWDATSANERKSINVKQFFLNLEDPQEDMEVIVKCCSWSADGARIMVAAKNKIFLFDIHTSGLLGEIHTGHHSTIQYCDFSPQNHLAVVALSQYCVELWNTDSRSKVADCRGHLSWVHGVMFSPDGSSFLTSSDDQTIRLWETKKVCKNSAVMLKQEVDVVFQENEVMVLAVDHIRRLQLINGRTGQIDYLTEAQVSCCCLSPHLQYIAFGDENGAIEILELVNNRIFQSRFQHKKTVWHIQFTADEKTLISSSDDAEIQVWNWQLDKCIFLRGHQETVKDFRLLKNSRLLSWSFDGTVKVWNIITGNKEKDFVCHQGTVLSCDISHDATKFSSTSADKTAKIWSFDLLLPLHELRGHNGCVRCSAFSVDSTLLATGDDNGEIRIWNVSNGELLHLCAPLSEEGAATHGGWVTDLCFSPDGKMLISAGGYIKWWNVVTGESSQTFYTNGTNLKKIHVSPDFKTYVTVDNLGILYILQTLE

Take `Cc1ccc(C(=O)N/C(=C\c2ccc(-c3ccccc3[N+](=O)[O-])o2)C(=O)NCCCN(C)C)cc1`: the concentration giving a half-maximal response (EC50) in experiment [1] is > 300 µM (inconclusive); in [2] it was 18.6 µM (active). The AC50 in experiment [3] was 3.28 µM (active); in experiment [5] it was 33.4 µM (active). The IC50 in [4] was 70.1 µM (active).
For the compound `CN(c1ccccc1)S(=O)(=O)c1cccc(C(=O)Nc2cccc(C(=O)NC3CC3)c2)c1`, the EC50 in [6] was 0.575 µM (active).
As for `N#CC(C#N)=C1C=CC=CN1/C(=C\c1ccco1)C(=O)c1ccc(Br)cc1`, the IC50 in experiment [7] was 15.5 µM (active); in experiment [8] it was 4.51 µM (active); in [10], 15.4 µM; in experiment [11], 1.56 µM (active); in [12] it was 13.2 µM (inactive); in experiment [14] it was 0.895 µM (active). Also, the IC50 in experiment [15] is 44.7 µM (inactive); in [17], 88.7 µM (active). Besides, the EC50 in experiment [9] was > 31.5 µM (inactive). Moreover, the AC50 in experiment [3] was 5.59 µM (active); in experiment [13], 7.3 µM (active). For the same compound, the CC50 in experiment [16] was 100 µM (active).
With `CC(=O)Nc1cccc(C(=O)OCC(=O)c2ccc3c(c2)OCO3)c1`, the AC50 in [18] was 50.2 µM (active).
For `O=C(COc1ccc(Cl)cc1)NC1=NN(c2ccccc2)C(=O)C1`, the AC50 in experiment [19] is 32.5 µM (active).
`Cc1ccc(S(=O)(=O)N(C)C[C@@H]2Oc3c(NC(=O)Nc4cccc5ccccc45)cccc3C(=O)N([C@H](C)CO)C[C@H]2C)cc1`: the AC50 in [20] was > 235 µM (inactive); in [21] it was 30.3 µM (active); in experiment [22], 61.1 µM (active).
For `COc1ccc(S(=O)(=O)N(C)C[C@@H]2Oc3c(NC(=O)Nc4ccc(F)cc4)cccc3C(=O)N([C@@H](C)CO)C[C@H]2C)cc1`, the results for the AC50 in experiment [20] and in experiment [23] were 22.8 µM (active) and 134 µM (active), respectively.
As to `COc1cc(NC(=O)c2ccc3c(c2)OCO3)ccc1NC(=O)c1cc2ccccc2o1`, the IC50 is > 80 µM (inactive) in experiment [24], > 79 µM (inactive) in experiment [25] and > 80 µM (inactive) in experiment [26].
Turning to `CCOc1ccccc1NC(=O)C(=O)N/N=C/c1cc(Br)ccc1O`, the EC50 is > 160 µM (inactive) in experiment [27]; 0.358 µM (active) in experiment [28]; 1.02 µM (active) in experiment [29]; > 180 µM (inactive) in experiment [30]; > 60 µM (not active) in [31]; > 160 µM (inactive) in [32]. Moreover, the AC50 is 3.34 µM (active) in experiment [3] and 1.04 µM (active) in experiment [13].
